How the values were obtained:
[1] = Pharmacokinetic study in minipigs after i.v. administration; assay type: in vivo; details: female, Göttingen, minipig, plasma, iv, 15 nmol/kg; read-out: Half-life (t½) (converted)
Text: By terminal half-life is generally meant the period of time it takes to halve a certain plasma concentration, measured after the initial distribution phase.
After minimum 2 weeks of acclimatization two permanent central venous catheters were implemented in vena cava caudalis in each animal. After surgery the animals were in their normal individual pens during the pharmacokinetic experiments.
On day 1 the catheters are coupled to extension tubes, which will be removed at the end of day 1. […] Samples were kept on wet ice until centrifugation (10 min, 4° C., 1942 g).
Plasma concentration-time profiles was analysed by a non-compartmental pharmacokinetics analysis using Phoenix (Pharsight Inc., Mountain View, Calif., USA). Calculations were performed using individual concentration-time values from each animal.

human Y4 receptor = target: T1, human Y4 receptor (Homo sapiens, UniProt P50391); test: Scintillation proximity assay (SPA) receptor binding, Y4; details: Y4 Ki, membranes of CHO-K1 cells, [125I]-Pancreatic Polypeptide
T1 construct: expressed in transfected cells; host or cells: CHO-K1 (membrane preparation)
T1 sequence (P50391 whole entry): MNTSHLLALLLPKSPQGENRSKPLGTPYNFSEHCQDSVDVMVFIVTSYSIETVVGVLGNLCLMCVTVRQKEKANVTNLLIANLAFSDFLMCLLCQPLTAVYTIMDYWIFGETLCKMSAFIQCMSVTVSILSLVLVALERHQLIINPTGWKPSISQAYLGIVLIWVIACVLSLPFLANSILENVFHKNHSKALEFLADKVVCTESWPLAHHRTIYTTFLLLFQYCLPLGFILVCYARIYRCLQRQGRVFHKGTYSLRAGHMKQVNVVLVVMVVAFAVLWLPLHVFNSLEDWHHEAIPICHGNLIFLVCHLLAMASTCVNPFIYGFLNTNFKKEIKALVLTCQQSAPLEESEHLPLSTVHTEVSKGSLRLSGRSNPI
Procedure: (§1) The purpose of this example is to test the in vitro binding of the PYY compounds to the Y1, Y2, Y4 and Y5 receptor subtypes, respectively. The receptor binding affinity is a measure of affinity of a compound for the human Y1, Y2, Y4 and Y5 receptor subtypes, respectively.
(§2) Scintillation Proximity Assay (SPA)
(§3) NPY-Receptor Expressing Cell Lines.
(§4) All cells were cultured at +37° C. in a humidified atmosphere with 5% CO2. […] CHO-K1 cells stably expressing the human Y2 receptor (P49146, NPY2R_HUMAN, Uniprot) were cultured in DMEM F-12 with 10% FBS, 1% P/S, 150 μg/ml Hygromycin B and 10 μg/ml Puromycin antibiotic. CHO-K1 cells stably expressing the human Y4 receptor (P50391, NPY4R_HUMAN, Uniprot) were cultured in DMEM F-12 with 10% FBS, 1% P/S, 10 μg/ml Puromycin. HEK-293 cells stably expressing the human Y5 receptor (Q15761, NPY5R_HUMAN, Uniprot) were cultured in DMEM F-12 medium containing 10% FBS, 1% Penicillin-Streptomycin, 250 μg/ml G418 and 1 μg/ml puromycin.
(§5) The homogenate was centrifuged at 35000 g using an ultracentrifuge for 10 minutes at +4° C. and the supernatant was discarded and fresh homogenization buffer added. Homogenization of the pellet was repeated a total of three times.
(§6) Human Y receptor SPA binding assay were performed in white 96-well plates in a total volume of 200 μl per well.
(§7) Plates were sealed and incubated at +25° C. for 2 hours in a plate shaker set at 400 rpm and thereafter centrifuged at 1500 rpm for 10 minutes prior to reading of luminescence on a microplate scintillation and luminescence counter. […] Displacement of radioligand was measured as reduction in luminescence and IC50 values were calculated by nonlinear regression analysis of sigmoidal dose-response curves.

human Y1 receptor = target: T2, human Y1 receptor (Homo sapiens, UniProt P25929); test: Scintillation proximity assay (SPA) receptor binding, Y1
T2 construct: expressed in transfected cells; host or cells: BHK-21 clone 6-482-8, IPTG-induced (membrane preparation)
T2 sequence (P25929 1-384): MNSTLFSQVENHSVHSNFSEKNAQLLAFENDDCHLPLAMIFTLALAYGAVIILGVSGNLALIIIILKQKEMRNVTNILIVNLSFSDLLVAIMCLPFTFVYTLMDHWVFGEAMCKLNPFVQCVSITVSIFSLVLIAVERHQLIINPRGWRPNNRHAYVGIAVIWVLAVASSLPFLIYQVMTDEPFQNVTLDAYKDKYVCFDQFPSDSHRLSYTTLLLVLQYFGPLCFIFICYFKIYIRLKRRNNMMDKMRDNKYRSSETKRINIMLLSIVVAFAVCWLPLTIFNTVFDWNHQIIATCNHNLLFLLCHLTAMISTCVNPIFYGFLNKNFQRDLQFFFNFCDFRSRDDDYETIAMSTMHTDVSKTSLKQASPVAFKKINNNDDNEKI
Procedure: as §1, §2, §3, §4, §5, §6, §7

| Structure (SMILES) | half-life [1] [h] | Ki (human Y4 receptor) [µM] | Ki (human Y1 receptor) [µM] |
| --- | --- | --- | --- |
| CC(C)CC(=O)N[C@@H](CCCNC(=N)N)C(=O)N1CCC[C@H]1C(=O)N[C@@H](CCC(=O)O)C(=O)N[C@@H](C)C(=O)N1CCC[C@H]1C(=O)N1CCC[C@H]1C(=O)N[C@@H](CCCCNC(=O)CC[C@H](NC(=O)COCCOCCNC(=O)CC[C@H](NC(=O)CCCCCCCCCCCCCCCS(=O)(=O)O)C(=O)O)C(=O)O)C(=O)N[C@@H](CC(=O)O)C(=O)N[C@@H](C)C(=O)N[C@@H](CO)C(=O)N1CCC[C@H]1C(=O)N[C@@H](CCC(=O)O)C(=O)N[C@@H](CCC(=O)O)C(=O)N[C@@H](CC(C)C)C(=O)N[C@@H](CCC(N)=O)C(=O)N[C@@H](CCCNC(=N)N)C(=O)N[C@@H](Cc1ccc(O)cc1)C(=O)N[C@@H](Cc1ccc(O)cc1)C(=O)N[C@@H](C)C(=O)N[C@@H](CO)C(=O)N[C@@H](CC(C)C)C(=O)N[C@@H](CCCNC(=N)N)C(=O)N[C@@H](Cc1c[nH]cn1)C(=O)N[C@@H](Cc1ccc(O)cc1)C(=O)N[C@@H](Cc1ccc(O)cc1)C(=O)N[C@@H](CC(N)=O)C(=O)N[C@@H](Cc1c[nH]c2ccccc12)C(=O)N[C@@H](CC(C)C)C(=O)N[C@H](C(=O)N[C@@H](CCCNC(=N)N)C(=O)N[C@@H](CCC(N)=O)C(=O)N[C@@H](CCCNC(=N)N)C(=O)N[C@@H](Cc1ccc(O)cc1)C(N)=O)[C@@H](C)O [Compound 69, N{alpha-4}-(3-Methylbutanoyl)-N{Epsilon-10}-[(4S)-4-carboxy-4-[[2-[2-[2-[[(4S)-4-carboxy-4-(16-sulfohexadecanoylamino)butanoyl]amino]ethoxy]-ethoxy]acetyl]amino]butanoyl]-[Arg4,Pro9,Lys10,Gln18,Tyr28,Trp30,Leu31]-PYY-(4-36)] | 64 | 5.69 | > 10 |
| CC(C)CC(=O)N[C@@H](CCCNC(=N)N)C(=O)N1CCC[C@H]1C(=O)N[C@@H](CCC(=O)O)C(=O)N[C@@H](C)C(=O)N1CCC[C@H]1C(=O)NCC(=O)N[C@@H](CCCCNC(=O)CC[C@H](NC(=O)COCCOCCNC(=O)CC[C@H](NC(=O)CCCCCCCCCCCCCCCCC(=O)O)C(=O)O)C(=O)O)C(=O)N[C@@H](CC(=O)O)C(=O)N[C@@H](C)C(=O)N[C@@H](CO)C(=O)N1CCC[C@H]1C(=O)N[C@@H](CCC(=O)O)C(=O)N[C@@H](CCC(=O)O)C(=O)N[C@@H](CC(C)C)C(=O)N[C@@H](CCC(N)=O)C(=O)N[C@@H](CCCNC(=N)N)C(=O)N[C@@H](Cc1ccc(O)cc1)C(=O)N[C@@H](Cc1ccc(O)cc1)C(=O)N[C@@H](CCC(=O)O)C(=O)N[C@@H](CO)C(=O)N[C@@H](CC(C)C)C(=O)N[C@@H](CCCNC(=N)N)C(=O)N[C@@H](Cc1c[nH]cn1)C(=O)N[C@@H](Cc1ccc(O)cc1)C(=O)N[C@@H](Cc1ccc(O)cc1)C(=O)N[C@@H](CC(N)=O)C(=O)N[C@@H](Cc1c[nH]c2ccccc12)C(=O)N[C@@H](CC(C)C)C(=O)N[C@H](C(=O)N[C@@H](CCCNC(=N)N)C(=O)N[C@@H](CCC(N)=O)C(=O)N[C@@H](CCCNC(=N)N)C(=O)N[C@@H](Cc1ccc(O)cc1)C(N)=O)[C@@H](C)O [Compound 50, N{alpha-4}-(3-Methylbutanoyl)-N{Epsilon-10}-[(4S)-4-carboxy-4-[[2-[2-[2-[[(4S)-4-carboxy-4-(17-carboxyheptadecanoylamino)butanoyl]amino]ethoxy]ethoxy]-acetyl]amino]butanoyl]-[Arg4,Lys10,Gln18,Glu22,Tyr28,Trp30,Leu31]-PYY(4-36)] | 94 | > 10 | > 10 |

— patent US10005824B2, “Selective PYY compounds and uses thereof” (Novo Nordisk A/S, priority 2015, dated 2018)
